Test results as given in patent US20220380801A1, “TRIPARTITE SYSTEMS FOR PROTEIN DIMERIZATION AND METHODS OF USE” (priority 2019, published 2022).
Read-outs that look alike come from different tables or passages of the source.

How the values were obtained:
[1] = biological target: WT HCV NS3/4A PR (Hepatitis C virus subtype 1a, UniProt A8DG50, A1066T/I1043Q/I1044E/L1039E/L1040E/L1047Q, form not given); assay: Isothermal calorimetry; type: binding; settings: ITC, 37° C.
Protocol: (§1) Isothermal calorimetry (ITC) was carried out using the Auto-ITC 200 (Malvern), with a preliminary injection of 0.4 μl followed by 19 injections of 2 μl each, at 120 second intervals. Rotation of the solution was set to 750 rpm and temperature 37° C. […] The WT was run once; the S139A mutant was run in duplicate. The data were analysed with the ITC-PEAQ software (Malvern) using a one-site binding model and reference subtraction point-by-point.

[2] = biological target: S139A HCV NS3/4A PR (Hepatitis C virus subtype 1a, UniProt A8DG50, A1066T/I1043Q/I1044E/L1039E/L1040E/L1047Q/S1165A, form not given); assay: Isothermal calorimetry; type: binding; settings: ITC, 37° C.
Protocol: as §1

[3] = test system: Caspase 3 activity in kill switch-transduced HT29 cells; assay: Kill switch Caspase 3 functional assay; type: cell-based, human; settings: 10 nM simeprevir, relative to non-transduced cells
Protocol: HCT116 and HT29 transduced cells were generated following the same protocol with exception of using McCoy's 5A medium+10% foetal bovine serum as growth medium, supplemented with 2 μg/ml puromycin for selection of transduced cells.
Functional Caspase 9 activates Caspase 3, and this proteolytic activity can be determined using cleavage of non-fluorescent substrate DEVD-AMC into cleavage products DEVD and fluorescent AMC, such that AMC fluorescence signal at 430 nm is proportional to Caspase 3 activity. For the Caspase 3 assay, cells were plated in duplicate onto 6 well tissue-culture treated plates. 24 h later, one of the duplicate wells was treated with 10 nM simeprevir for 3 h. Cells lysates were analysed in triplicate using a Caspase 3 assay from BD Biosciences according to manufacturer's instruction with the modification that total protein input was normalised to 50 μg by BCA assay (LifeTechnologies). Fluorescence was determined on an Envision plate reader (PerkinElmer), Ex: 380 nm, Em: 430 nm. For quantification, RFU (raw fluorescence value) for wells that contained only the assay substrate were subtracted from all RFU derived from assay samples. Results were normalised to non-transduced, simeprevir-treated cells. Analysis was performed in Prism (GraphPad) using a One-Way-Anova followed by multiple comparisons.

[4] = biological target: HCV NS3/4A PR K136N/PRSIM_23 (Hepatitis C virus subtype 1a, UniProt A8DG50, A1066T/I1043Q/I1044E/K1162N/L1039E/L1040E/L1047Q/S1165A, form not given); assay: Biacore 8K simeprevir titration of heterodimerisation; type: binding; settings: read-out: EC50 of simeprevir for induction of heterodimerisation; K136N protease, immobilised PRSIM_23
Protocol: (§2) The effect of simeprevir concentration on the formation of the HCV NS3/4A PR (S139A)/PRSIM binding molecule complex was also measured using the Biacore 8K. PRSIM_57 and PRSIM_23 were covalently immobilised on a CM5 chip surface, as before. Simeprevir was diluted 1:2 (0.0152-300 nM) in 10 mM Hepes pH 7.4, 150 mM NaCl, 0.05% Surfactant P20, 0.3% DMSO at a constant 40 nM HCV NS3/4A PR (S139A) concentration. The samples were flowed over the chip at 50 μl/min using multi cycle kinetics, with 240 sec association and 600 sec dissociation. Regeneration conditions were as described above. Titration curves for the induction of HCV NS3/4A PR (S139A)/PRSIM dimerization by simeprevir were generated. The response for each simeprevir concentration at 225 sec (15 sec before the end of the association) was normalized as a percentage of the response for 300 nM Simeprevir at 225 sec and plotted against the Simeprevir concentration. Each data point represents the mean of 3 independent experiments±s.e.m. The EC50 reported was calculated using nonlinear regression curve fit. The same method was used for the mutant HCV NS3/4A proteases, except simeprevir was diluted 1:2 (0.0457-900 or 0.412-8,100 nM) in 10 mM Hepes pH 7.4, 150 mM NaCl, 0.05% Surfactant P20, 0.82% DMSO at a constant 40 nM HCV NS3/4A PR (S139A) concentration and the response for each simeprevir concentration was normalized against the highest simeprevir concentration.

[5] = biological target: HCV NS3/4A PR K136D/PRSIM_23 (Hepatitis C virus subtype 1a, UniProt A8DG50, K1162D/S1165A, form not given); assay: as above; type: binding
Protocol: as §2

[6] = biological target: HCV NS3/4A PR D168E/PRSIM_23 (Hepatitis C virus subtype 1a, UniProt A8DG50, D1194E/S1165A, form not given); assay: as above; type: binding; settings: read-out: EC50 of simeprevir for induction of heterodimerisation; D168E protease, immobilised PRSIM_23
Protocol: as §2

[7] = biological target: HCV NS3/4A PR (S139A)/PRSIM_57 (Hepatitis C virus subtype 1a, UniProt A8DG50, A1066T/I1043Q/I1044E/L1039E/L1040E/L1047Q/S1165A, form not given); assay: as above; type: binding; settings: read-out: EC50 of simeprevir for induction of heterodimerisation; 40 nM HCV NS3/4A PR (S139A), immobilised PRSIM_57
Protocol: as §2

[8] = biological target: HCV NS3/4A PR (S139A)/PRSIM_23 (Hepatitis C virus subtype 1a, UniProt A8DG50, A1066T/I1043Q/I1044E/L1039E/L1040E/L1047Q/S1165A, form not given); assay: as above; type: binding; settings: read-out: EC50 of simeprevir for induction of heterodimerisation, 40 nM ‘WT’ (S139A) protease, immobilised PRSIM_23
Protocol: as §2

COc1ccc2c(O[C@@H]3C[C@H]4C(=O)N[C@]5(C(=O)NS(=O)(=O)C6CC6)C[C@H]5/C=C\CCCCN(C)C(=O)[C@@H]4C3)cc(-c3nc(C(C)C)cs3)nc2c1C [simeprevir]
stoichiometry [1]: ~0.6 Sim/NS3 binding sites | ΔH [1]: ~22 kcal/mol | stoichiometry [2]: ~0.6 Sim/NS3 binding sites | ΔH [2]: ~22 kcal/mol | Caspase 3 activity [3]: significantly (p<0.0001) up-regulated | EC50 [4]: 8.06 nM | EC50 higher than for the wt complex ([5]; K136D versus wt complex): ~30 fold | EC50 ([5]; read-out: EC50 of simeprevir for induction of heterodimerisation, K136D protease, immobilised PRSIM_23): 132 nM | EC50 [6]: 3.69 nM | EC50 [7]: 4.57 nM | EC50 [8]: 4.53 nM | EC50 ([8]; listed as Simeprevir): 4.03 nM
